Reference: patent publication US8609730B2, “Rel inhibitors and methods of use thereof” (The Trustees of the University of Pennsylvania, priority 2008, dated 2013)
“Also recorded” adds a separate entry of the source.

Assays:
[1] = system: spleen cells of B6 mice; experiment: Cytokine production by spleen cells treated with anti-CD3 antibody (ELISA); format: cell-based
Procedure: FIG. 1. FIG. 1A depicts a graph showing the IL-2 inhibitory effect of R13D (compound III), R13096 (compound CXX), and R13015 (compound VI). FIG. 1B depicts a graph showing the IFN-gamma inhibitory effect of R13D (compound III), R13096 (compound CXX), and R13015 (compound VI).
FIG. 3. Depicts a graph showing Splenocytes that were cultured under various conditions as indicated on the X-axis. Twenty-four hours later, cytokines in the supernatant were determined by ELISA (R13D is compound III, R31C. is compound IV, R32D is compound VII).
To determine whether these inhibitors are effective in suppressing cytokine production by inflammatory cells, spleen cells of B6 mice were treated with anti-CD3 antibody (to activate the inflammatory cells) with or without different concentrations of the compounds. […] As further shown in FIG. 1 IL-2 and IFN-gamma were inhibited by […], and compound VI at concentrations ranging from 5-20 μM.

[2] = system: splenocytes or purified CD4+ splenic T cells of C57BL/6 mice; experiment: Cell-based assay for testing c-Rel blockers: cytokine expression with anti-CD3 and anti-CD28; parameters: IL-4 in culture: dose or concentration left out as unconfirmed; conditions: for IL-2 production by T cells (IL-2 release assay, secondary screening): hits of virtual screening
Procedure: (§1) Splenocytes of C57BL/6 mice (n=4) were cultured with or without plate-bound anti-CD3 (1 ug/ml) and soluble anti-CD28 (2 ug/ml), in the presence of various concentrations of R96 as indicated. R96 was dissolved in PBS, and the amount of the PBS added to each culture was identical ([…]). Twenty-four hours later, cytokines in the supernatant were determined by ELISA (A-C). The percentages of dead cells in the culture were determined by flow cytometry following staining cells with annexin-V and propidium iodide (PI)(D).
To design drugs that could disable human c-Rel binding to DNA (therefore blocking the biological activity of c-Rel), chicken c-Rel 3-D model was first humanized by replacing chicken residues with their human counterparts. The model was then minimized using the Insight II software (Accelrys, Inc). The minimized model was used to discover small molecule inhibitors that can interfere with the residues in loops L1 and L2. A small druggable cavity was identified using programs available in Insight II. This structure was designated as the L1 cavity. The L1 cavity is formed by loops L1, L2 and a helix. Residues Arg 21, Cys 26, Glu 27, Lys 110 and Lys 111 form the mouth of the L1 cavity (FIG. 2). A virtual screening approach was used to identify small molecule inhibitors that block DNA binding to the L1 cavity by perturbing these key contact residues as we previously described. From ˜50,000 drug-like molecules of available chemical libraries, about 100 hits were identified. […] These compounds fall into two structural classes, the phenylcarbamates (FIG. 2C) and sulfanyl-methaniminium-based compounds, represented by R13:
To determine whether the c-Rel blockers identified above are effective in regulating inflammatory cell function, splenocytes or purified CD4+ splenic T cells of C57BU6 mice were treated with anti-CD3 and anti-CD28 in the presence of increasing concentrations of the compounds. Cytokine expression was determined by ELISA, flow cytometry or real-time PCR, whereas CD4 expression and cell survival were determined by flow cytometry alone. […]

[3] = system: C57BL/6 mice immunized to induce EAE; experiment: EAE induced with MOG38-50 peptide, prevention and treatment; format: in vivo; conditions: for treating ongoing EAE (after onset): i.p. daily after onset, 100 ug/mouse/injection
[4] = system: splenocytes or CD4+ T cells of C57BL/6 mice; experiment: Cell survival / dead cells by flow cytometry (annexin-V and propidium iodide); format: cell-based; parameters: survival of CD4+ T cells or total splenocytes: dose or concentration left out as unconfirmed
Procedure: as §1
To determine whether the c-Rel blockers identified above are effective in regulating inflammatory cell function, splenocytes or purified CD4+ splenic T cells of C57BU6 mice were treated with anti-CD3 and anti-CD28 in the presence of increasing concentrations of the compounds. Cytokine expression was determined by ELISA, flow cytometry or real-time PCR, whereas CD4 expression and cell survival were determined by flow cytometry alone. […] The IC50 of R96 for IL-2 inhibition is […]. […] Because Th1 cytokine IFN-g inhibits the activity of Th2 cells, the increased IL-4 in cultures containing […] R96 could be due to the reduced IFN-g in the culture. […] In fact, c-Rel-deficient mice have reduced but not increased IgG1, IgG3 and IgE production.

[5] = anti-CD3 treated spleen cells, 24 h, FIG. 3
[6] = FIG. 1, concentrations ranging from 5-20 μM

O=C(Nc1ccccc1)OCc1nccn1Cc1ccc(Cl)cc1 [R13]
Interleukin (IL)-2 production [1, 5]: significantly inhibited | interferon-gamma production [1, 5]: significantly inhibited | IL-2 production by T cells (IL-2 release assay, secondary screening) [2]: significantly inhibited | treating ongoing EAE (after onset) [3]: statistically significant; also recorded: significantly ameliorated | preventing EAE (prophylaxis) ([3]; i.p. daily from day 1 to day 13, 100 ug/mouse/injection (100 mg)): statistically significant

Br.N#Cc1ccc(CSC(=N)Nc2ccccc2)cc1 [R96]
IL-4 in culture ([2]; cultures containing R96): increased | IL-2 production by T cells (IL-2 release assay, secondary screening) [2]: most potent | survival of CD4+ T cells or total splenocytes ([4]; highest concentration tested): does not significantly affect | percentage of annexin-V+ and PI+ cells (dead cells) ([4]; various concentrations, 24 h): No significant differences | treating ongoing EAE (after onset) [3]: statistically significant; also recorded: significantly ameliorated | mean disease score ([3]; seven days into the treatment after onset, FIG. 5C, control 1.83±0.16, p<0.001): 0.75±0.43

CC(C)(C)c1cc(NC(=O)/C(C#N)=C/c2cccc(Cl)c2Cl)c(C(N)=O)s1 [compound V]
IFN-gamma inhibition [1, 6]: inhibited | IL-2 inhibition [1, 6]: inhibited
